# Test results as given in article PMC5013675, “Nucleotide binding by the widespread high-affinity cyclic di-GMP receptor MshEN domain” (Nature Communications, 2016).
# Several values for one entry are separate records, joined by “and”; a condition that tells them apart may be missing. Equal entries are not always repeated.
# What was measured:
# [1] = target: VcMshEN1-145 (wild type) (Vibrio cholerae, UniProt Q9KUV7); experiment: biochemical; format: binding
# [2] = target: VcMshEN G40I (Vibrio cholerae, UniProt Q9KUV7, G40I); format: binding
# [3] = target: GST (Schistosoma japonicum, UniProt P08515); experiment: ITC control, GST alone with c-di-GMP; format: binding
# [4] = target: T1, D. geothermalis PilB_2 (ABF44566 151-300) (Deinococcus geothermalis, UniProt Q1J1R8); experiment: ITC titration of D. geothermalis PilB_2 with c-di-GMP; format: binding
# T1 sequence (Q1J1R8 151-300): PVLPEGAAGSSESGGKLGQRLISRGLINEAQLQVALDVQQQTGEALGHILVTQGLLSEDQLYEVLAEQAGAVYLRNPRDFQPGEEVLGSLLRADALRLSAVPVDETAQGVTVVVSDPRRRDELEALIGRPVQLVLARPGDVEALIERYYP
# [5] = target: D. geothermalis PilB_3 (ABF44566 301-475); experiment: ITC titration of D. geothermalis PilB_3 with c-di-GMP; format: binding, Deinococcus geothermalis; conditions: ABF44566_III, ND = not detectable
# [6] = target: T2, Moorella thermoacetica GspE (ABC19863 1-141) (Neomoorella thermoacetica, UniProt A0AAC9HIF0); experiment: ITC titration of Moorella thermoacetica GspE MshEN with c-di-GMP; format: binding
# T2 sequence (A0AAC9HIF0 1-141): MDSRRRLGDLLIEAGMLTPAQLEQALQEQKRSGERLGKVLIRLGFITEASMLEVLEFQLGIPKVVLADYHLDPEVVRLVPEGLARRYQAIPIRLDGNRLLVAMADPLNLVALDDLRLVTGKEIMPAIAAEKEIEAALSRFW
# [7] = target: V. cholerae MshEN_N1-65 (Vibrio cholerae, UniProt Q9KUV7); experiment: biochemical; format: binding
# [8] = target: Aeromonas veronii CheA (EKB11881 261-390); format: binding; conditions: read-out: Dissociation constant (KD)
# [9] = target: MshEN analogues, diverse bacterial proteins with the c-di-GMP-binding motif; conditions: read-out: binding constants
# [10] = tested on: VcMshEN wild type; format: binding, Vibrio cholerae
# [11] = target: P. aeruginosa PA3740 (AAG07127); conditions: cited from earlier work
# [12] = tested on: full-length MshE protein (ATPase); conditions: cited from earlier work
molecule,measurement,setting,value
"Nc1nc2c(ncn2[C@@H]2O[C@@H]3CO[P@](=O)(O)O[C@H]4[C@@H](O)[C@H](n5cnc6c(=O)[nH]c(N)nc65)O[C@@H]4CO[P@](=O)(O)O[C@H]3[C@H]2O)c(=O)[nH]1 [c-di-GMP, Cyclic dimeric GMP]",Kd,[1],500 nM
same,Fold change of KD,[2],72.0
same,c-di-GMP binding,[3],no c-di-GMP binding
same,Ligand/protein ratio,[4],1.01
same,Kd,"[4]; KD, middle domain of PilB (ABF44566)",14 nM and 13.5 nM
same,Dissociation constant (KD),[5],completely lost it binding affinity
same,Ligand/protein ratio,[6],1.01
same,Kd,[6]; read-out: Dissociation constant (KD),460 nM
same,Kd,[7],350 nM
same,Ligand/protein ratio,[7],0.99
same,Kd,[8],2600 nM
same,Kd,[9],~500 nM
same,"Melting temperature Tm, + c-di-GMP",[10],71 ºC
same,Melting temperature increase,[10],9 º
same,Tm Difference (+ c-di-GMP minus absence),[10],10 ºC
same,Kd,[11],~30 nM
same,Stimulation of ATPase activity by external c-di-GMP,[12],< 10%
c-di-AMP,Dissociation constant (KD),[1],non-detectable
same,KD,[1],non-detectable
cGMP,Binding to the MshEN domain,[10],cannot bind
